Where “and” joins values, the source holds several entries; their conditions need not be identical. Equal values may be shown once. Toxic doses and inconclusive results are not listed. Cut-off read from the data, not from the text of the source: active = T/C of 150% or more; inactive = T/C below 125%. Square brackets hold non-standard residues; d marks the D form. Peptide text beside a SMILES is read from it. ξ: configuration not given here. ξF = NC(Cc1ccccc1)C(=O)O
Tested on: L1210 leukemia ip in BDF1 mice, survival T/C
Assay: NCI In Vivo Anticancer Drug Screen. Data for tumor model L1210 Leukemia (intraperitoneal) in B6D2F1 (BDF1) mice
Settings: endpoint: mean survival time, higher = longer survival
Outline: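 Each compound was tested against a transplantable tumor grown in mice. The endpoint was survival, with treated animals benchmarked against vehicle controls as a simple ratio.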

[1] = dose: 50.0 mg/kg/injection, schedule: Q01DX009 (ip), vehicle: saline with Tween-80
[2] = dose: 100.0 mg/kg/injection, schedule: Q01DX009 (ip), vehicle: saline with Tween-80
[3] = dose: 200.0 mg/kg/injection, schedule: Q01DX009 (ip), vehicle: saline with Tween-80
[4] = dose: 100.0 mg/kg/injection, schedule: Q04DX002 (ip), vehicle: Klucel (hydroxypropylcellulose) (HPC)
[5] = dose: 200.0 mg/kg/injection, schedule: Q04DX002 (ip), vehicle: Klucel (hydroxypropylcellulose) (HPC)
[6] = dose: 400.0 mg/kg/injection, schedule: Q04DX002 (ip), vehicle: Klucel (hydroxypropylcellulose) (HPC)
[7] = dose: 100.0 mg/kg/injection, schedule: Q01DX001 (ip), vehicle: saline
[8] = dose: 200.0 mg/kg/injection, schedule: Q01DX001 (ip), vehicle: saline
[9] = dose: 400.0 mg/kg/injection, schedule: Q01DX001 (ip), vehicle: saline
[10] = dose: 100.0 mg/kg/injection, schedule: Q01DX009 (ip), vehicle: saline
[11] = dose: 200.0 mg/kg/injection, schedule: Q01DX009 (ip), vehicle: saline
[12] = dose: 400.0 mg/kg/injection, schedule: Q01DX009 (ip), vehicle: saline
[13] = dose: 12.5 mg/kg/injection, schedule: Q04DX003 (ip), vehicle: saline with Tween-80
[14] = dose: 25.0 mg/kg/injection, schedule: Q04DX003 (ip), vehicle: saline with Tween-80
[15] = dose: 50.0 mg/kg/injection, schedule: Q04DX003 (ip), vehicle: saline with Tween-80
[16] = dose: 100.0 mg/kg/injection, schedule: Q01DX009 (ip), vehicle: Klucel (hydroxypropylcellulose) (HPC)
[17] = dose: 200.0 mg/kg/injection, schedule: Q01DX009 (ip), vehicle: Klucel (hydroxypropylcellulose) (HPC)
[18] = dose: 400.0 mg/kg/injection, schedule: Q01DX009 (ip), vehicle: Klucel (hydroxypropylcellulose) (HPC)
[19] = dose: 100.0 mg/kg/injection, schedule: Q04DX002 (ip), vehicle: saline with Tween-80
[20] = dose: 200.0 mg/kg/injection, schedule: Q04DX002 (ip), vehicle: saline with Tween-80
[21] = dose: 400.0 mg/kg/injection, schedule: Q04DX002 (ip), vehicle: saline with Tween-80
[22] = dose: 100.0 mg/kg/injection, schedule: Q04DX003 (ip), vehicle: saline with Tween-80
[23] = dose: 200.0 mg/kg/injection, schedule: Q04DX003 (ip), vehicle: saline with Tween-80
[24] = dose: 400.0 mg/kg/injection, schedule: Q01DX009 (ip), vehicle: saline with Tween-80
[25] = dose: 400.0 mg/kg/injection, schedule: Q04DX003 (ip), vehicle: saline with Tween-80
[26] = dose: 100.0 mg/kg/injection, schedule: Q04DX003 (ip), vehicle: Klucel (hydroxypropylcellulose) (HPC)
[27] = dose: 200.0 mg/kg/injection, schedule: Q04DX003 (ip), vehicle: Klucel (hydroxypropylcellulose) (HPC)
[28] = dose: 400.0 mg/kg/injection, schedule: Q04DX003 (ip), vehicle: Klucel (hydroxypropylcellulose) (HPC)
[29] = dose: 100.0 mg/kg/injection, schedule: Q04DX003 (ip), vehicle: saline
[30] = dose: 200.0 mg/kg/injection, schedule: Q04DX003 (ip), vehicle: saline
[31] = dose: 400.0 mg/kg/injection, schedule: Q04DX003 (ip), vehicle: saline

Measured: T/C

COc1cc2c3c(c1)-c1c(ccc(OC)c1O)CC3N(C)CC2 (stereo not given)
inactive: dose: 25.0 mg/kg/injection, schedule: Q04DX003 (ip), vehicle: DMSO 93 % of control | dose: 50.0 mg/kg/injection, schedule: Q04DX003 (ip), vehicle: DMSO 91 % of control | dose: 100.0 mg/kg/injection, schedule: Q04DX003 (ip), vehicle: DMSO 91 % of control

COC(=O)C1CCCN1C(=O)C(C)=O (stereo not given)
inactive: dose: 100.0 mg/kg/injection, schedule: Q04DX002 (ip), vehicle: saline 102 % of control | dose: 200.0 mg/kg/injection, schedule: Q04DX002 (ip), vehicle: saline 94 % of control | dose: 400.0 mg/kg/injection, schedule: Q04DX002 (ip), vehicle: saline 113 % of control

CC(C)C#C/C=C/C(C)C
inactive: [1] 95 % of control | [2] 95 % of control | [3] 103 % of control

CC(=O)Oc1ccc2ccnc(/C=N\NC(N)=S)c2c1
inactive: [4] 106 % of control | [5] 98 % of control | [6] 117 % of control

Cc1cc(=O)n2c3c(ccc([N+](=O)[O-])c13)OC2
inactive: [7] 104 % of control | [8] 99 % of control | [9] 95 % of control

C#CC1(O)CCC2C3CCc4cc(O)ccc4C3CCC21C (stereo not given)
inactive: dose: 50.0 mg/kg/injection, schedule: Q01DX001 (sc), vehicle: steriod suspending solution 94 % of control | dose: 100.0 mg/kg/injection, schedule: Q01DX001 (sc), vehicle: steriod suspending solution 92 % of control | dose: 200.0 mg/kg/injection, schedule: Q01DX001 (sc), vehicle: steriod suspending solution 106 % of control | dose: 400.0 mg/kg/injection, schedule: Q01DX001 (sc), vehicle: steriod suspending solution 97 % of control

COc1cc(/C(C)=N/N=C(\C)c2ccc(O)c(OC)c2)ccc1O
inactive: [10] 94 % of control | [11] 90 % of control | [12] 90 % of control

CCCCCCCCCCOC(CN)C(Cl)(Cl)Cl (stereo not given)
inactive: dose: 12.5 mg/kg/injection, schedule: Q01DX009 (ip), vehicle: saline with Tween-80 93 % of control | [13] 98 % of control | dose: 25.0 mg/kg/injection, schedule: Q01DX009 (ip), vehicle: saline with Tween-80 97 % of control | [14] 101 % of control | [15] 103 % of control

CC(=O)Nc1nnc(SC(C)=O)s1
inactive: [16] 95 % of control and 90 % of control | [17] 95 % of control | [18] 93 % of control and 94 % of control

CCOc1ccc(-c2nnc(Nc3ccc(S(=O)(=O)N4CCCCC4)cc3)s2)cc1
inactive: [2] 87 % of control | [19] 96 % of control | [20] 93 % of control | [21] 90 % of control

CCCC(O)(CCC)C(=O)O
inactive: [7] 94 % of control | [8] 94 % of control

CN/C([S-])=N/N=C/C(=N/N=C(\[S-])NC)c1ccc(-c2ccccc2)cc1.[Cu+2]
inactive: [4] 106 % of control | [5] 95 % of control | [6] 100 % of control

NC(Cc1ccccc1)C(=O)NCC(=O)NCC(=O)O (stereo not drawn) (H-[ξF]-Gly-Gly-OH)
inactive: [2] 107 % of control | [22] 102 % of control | [3] 91 % of control | [23] 104 % of control | [24] 89 % of control | [25] 98 % of control

O=C1CC(=O)NC(=S)N1
inactive: [22] 101 % of control | [23] 93 % of control | [25] 93 % of control

COC(=O)c1ccccc1SSc1ccccc1C(=O)OC
inactive: [22] 95 % of control | [23] 102 % of control | [25] 102 % of control

COc1ccc([N+](=O)[O-])cc1NC(=O)N1CCCCC1C (stereo not given)
inactive: dose: 100.0 mg/kg/injection, schedule: Q01DX001 (ip), vehicle: Klucel (hydroxypropylcellulose) (HPC) 101 % of control | [16] 98 % of control and 102 % of control | [4] 97 % of control and 103 % of control | [26] 106 % of control | dose: 200.0 mg/kg/injection, schedule: Q01DX001 (ip), vehicle: Klucel (hydroxypropylcellulose) (HPC) 102 % of control | [17] 98 % of control and 106 % of control | [5] 94 % of control and 105 % of control | [27] 99 % of control | dose: 400.0 mg/kg/injection, schedule: Q01DX001 (ip), vehicle: Klucel (hydroxypropylcellulose) (HPC) 96 % of control | [18] 95 % of control and 96 % of control | [6] 94 % of control and 110 % of control | [28] 91 % of control

CC(C)(C)/C=N/Nc1ccc([N+](=O)[O-])cc1[N+](=O)[O-]
inactive: [16] 108 % of control | [17] 106 % of control | [18] 102 % of control

Cc1cc(N)c(C)c(C)c1O
inactive: [13] 94 % of control | [14] 94 % of control | [15] 94 % of control | [22] 101 % of control

Cc1cccc(C2C(=O)c3ccccc3C2=O)n1
inactive: [2] 88 % of control | [22] 95 % of control | [3] 89 % of control | [23] 99 % of control | [24] 91 % of control | [25] 88 % of control

Cn1cnc(C(N)=S)c1N
inactive: [10] 98 % of control | [29] 107 % of control | [11] 105 % of control | [30] 102 % of control | [12] 96 % of control | [31] 105 % of control

O=S(=O)(O)c1ccc(N=Nc2c(O)cc(O)cc2O)cc1
inactive: [29] 94 % of control | [30] 97 % of control | [31] 93 % of control

O=C1Nc2ccccc2C1=Nc1ccc(S(=O)(=O)Nc2nccs2)cc1
inactive: dose: 75.0 mg/kg/injection, schedule: Q01DX001 (ip), vehicle: saline 89 % of control | dose: 150.0 mg/kg/injection, schedule: Q01DX001 (ip), vehicle: saline 86 % of control | dose: 300.0 mg/kg/injection, schedule: Q01DX001 (ip), vehicle: saline 86 % of control

C=CCC(CCCCCCCCCCC)C(=O)O (stereo not given)
inactive: dose: 100.0 mg/kg/injection, schedule: Q01DX001 (ip), vehicle: saline with Tween-80 111 % of control | dose: 200.0 mg/kg/injection, schedule: Q01DX001 (ip), vehicle: saline with Tween-80 97 % of control | dose: 400.0 mg/kg/injection, schedule: Q01DX001 (ip), vehicle: saline with Tween-80 90 % of control

O=[N+]([O-])c1cc(Cl)cc2c1nc(NCCCO)c1ccccc12
inactive: [26] 105 % of control | [27] 108 % of control | [28] 102 % of control

COCCOCC(=O)O
inactive: [19] 101 % of control | [20] 96 % of control | [21] 108 % of control

CC(C)=NNC(=O)c1ccccc1
inactive: [13] 94 % of control | [1] 110 % of control | [15] 96 % of control | [2] 113 % of control | [22] 108 % of control and 110 % of control | [23] 124 % of control | [25] 96 % of control

C=CCOc1c(Cl)c(Cl)c(Cl)c(Cl)c1Cl
inactive: dose: 100.0 mg/kg/injection, schedule: Q01DX009 (ip), vehicle: saline sonified 96 % of control | [26] 96 % of control | dose: 200.0 mg/kg/injection, schedule: Q01DX009 (ip), vehicle: saline sonified 91 % of control | [27] 96 % of control | dose: 400.0 mg/kg/injection, schedule: Q01DX009 (ip), vehicle: saline sonified 97 % of control | [28] 96 % of control

CN(C)C(=O)C(=O)c1c[nH]c2ccccc12
inactive: [4] 118 % of control | [5] 109 % of control | [6] 109 % of control

Cc1ccc(/C(Cc2ccccc2)=N\NC(N)=O)cc1
inactive: [7] 92 % of control | [8] 98 % of control | [9] 98 % of control

COC(=O)Nc1cccc(OC(=O)NC(C)C)c1
inactive: [22] 95 % of control | [23] 93 % of control | [25] 93 % of control

O=C(Nc1ccccc1Cl)NC1CCCCC1
inactive: [16] 100 % of control | [4] 95 % of control | [17] 97 % of control | [5] 100 % of control | [18] 91 % of control | [6] 95 % of control

Reference: PubChem BioAssay AID248 (DTP/NCI, 2004)
